Biological target: GCN2 kinase (Homo sapiens, UniProt Q9P2K8)
Assay: GCN2 enzyme inhibition assay (Transcreener ADP2 fluorescence polarization)
Format: biochemical
Conditions: Enzyme activity for compounds of Formula IV; Ki(app), 280 μM ATP, 25° C.
Outline: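 ADP formation read by Transcreener FP after a 1 h, 25 °C kinase reaction containing 280 μM ATP, 200 μM (RS)7 substrate and 4 nM GCN2, pH 7.5 Tris buffer. Compounds (0–8 μM final) were added 10 min before ATP. Percent inhibition gave IC50 and apparent Ki via tight-binding fit.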

Chain of GCN2 kinase (Q9P2K8 whole entry): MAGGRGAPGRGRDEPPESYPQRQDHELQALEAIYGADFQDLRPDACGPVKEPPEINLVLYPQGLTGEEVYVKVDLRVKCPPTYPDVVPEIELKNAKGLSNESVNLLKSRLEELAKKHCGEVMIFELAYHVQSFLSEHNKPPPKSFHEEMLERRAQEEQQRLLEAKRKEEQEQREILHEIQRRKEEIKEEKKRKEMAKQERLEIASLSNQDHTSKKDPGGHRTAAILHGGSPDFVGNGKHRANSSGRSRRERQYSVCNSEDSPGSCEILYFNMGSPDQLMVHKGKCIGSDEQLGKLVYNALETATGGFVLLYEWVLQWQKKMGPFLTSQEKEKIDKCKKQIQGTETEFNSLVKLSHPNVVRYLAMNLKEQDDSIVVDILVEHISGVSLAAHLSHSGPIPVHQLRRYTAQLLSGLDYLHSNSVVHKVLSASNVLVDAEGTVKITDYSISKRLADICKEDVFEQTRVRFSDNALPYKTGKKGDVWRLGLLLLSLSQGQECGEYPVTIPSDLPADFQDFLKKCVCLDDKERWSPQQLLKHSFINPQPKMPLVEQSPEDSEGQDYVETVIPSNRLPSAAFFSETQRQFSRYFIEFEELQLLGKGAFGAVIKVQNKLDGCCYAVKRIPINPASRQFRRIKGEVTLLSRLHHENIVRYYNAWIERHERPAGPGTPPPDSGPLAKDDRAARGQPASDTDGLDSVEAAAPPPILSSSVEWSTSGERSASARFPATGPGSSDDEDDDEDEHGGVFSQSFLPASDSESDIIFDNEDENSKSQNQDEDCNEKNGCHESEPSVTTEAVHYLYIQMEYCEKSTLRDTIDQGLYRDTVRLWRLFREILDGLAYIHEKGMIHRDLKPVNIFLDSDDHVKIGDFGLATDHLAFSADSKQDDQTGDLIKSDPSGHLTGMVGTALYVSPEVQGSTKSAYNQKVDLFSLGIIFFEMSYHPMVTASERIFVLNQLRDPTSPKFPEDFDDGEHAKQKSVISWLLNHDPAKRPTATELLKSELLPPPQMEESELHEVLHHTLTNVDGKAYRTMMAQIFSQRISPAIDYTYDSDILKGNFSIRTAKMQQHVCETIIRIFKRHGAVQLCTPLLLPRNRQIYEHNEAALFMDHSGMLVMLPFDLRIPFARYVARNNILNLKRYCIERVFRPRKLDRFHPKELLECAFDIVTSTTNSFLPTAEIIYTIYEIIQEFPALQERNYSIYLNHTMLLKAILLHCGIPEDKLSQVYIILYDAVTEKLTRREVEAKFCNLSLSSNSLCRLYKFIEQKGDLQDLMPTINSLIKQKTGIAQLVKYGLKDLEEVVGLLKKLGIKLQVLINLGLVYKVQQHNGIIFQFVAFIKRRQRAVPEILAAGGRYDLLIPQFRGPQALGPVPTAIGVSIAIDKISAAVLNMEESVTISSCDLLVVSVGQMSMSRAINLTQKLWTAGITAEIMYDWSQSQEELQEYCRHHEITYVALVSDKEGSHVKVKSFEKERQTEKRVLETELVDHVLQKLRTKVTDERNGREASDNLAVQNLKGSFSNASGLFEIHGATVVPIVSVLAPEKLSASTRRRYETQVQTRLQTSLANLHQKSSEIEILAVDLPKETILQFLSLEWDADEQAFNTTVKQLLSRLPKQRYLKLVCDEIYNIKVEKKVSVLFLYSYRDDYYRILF

Compound | Ki
CC1CN(c2ccnc(-c3cnc4cnc(C(F)(F)F)cn34)n2)CC1N1CCOCC1 (stereo not drawn) [IV-569, 4-(4-Methyl-1-(2-(6-(trifluoromethyl)imidazo[1,2-a]pyrazin-3-yl)pyrimidin-4-yl)pyrrolidin-3-yl)morpholine] | 100 to 1000 nM
O=S1(=O)CCC2CN(c3ccnc(-c4cnc5cnc(C(F)(F)F)cn45)n3)CC21 (stereo not drawn) [IV-570, 5-(2-(6-(Trifluoromethyl)imidazo[1,2-a]pyrazin-3-yl)pyrimidin-4-yl)hexahydro-2H-thieno[2,3-a]pyrrole 1,1-dioxide] | 100 to 1000 nM
O=C1CN(c2ccnc(-c3cnc4cnc(C(F)(F)F)cn34)n2)CC2CCCCN12 (stereo not drawn) [IV-571, 2-(2-(6-(Trifluoromethyl)imidazo[1,2-a]pyrazin-3-yl)pyrimidin-4-yl)octahydro-4H-pyrido[1,2-a]pyrazin-4-one] | 100 to 1000 nM
CN1CC2(CCN(c3ccnc(-c4cnc5cnc(C(F)(F)F)cn45)n3)C2)OC1=O (stereo not drawn) [IV-579, 3-Methyl-7-(2-(6-(trifluoromethyl)imidazo[1,2-a]pyrazin-3-yl)pyrimidin-4-yl)-1-oxa-3,7-diazaspiro[4.4]nonan-2-one] | 100 to 1000 nM
CC1(C(N)=O)CCN(c2ccnc(-c3cnc4cnc(C(F)(F)F)cn34)n2)C1 (stereo not drawn) [IV-581, 3-Methyl-1-(2-(6-(trifluoromethyl)imidazo[1,2-a]pyrazin-3-yl)pyrimidin-4-yl)pyrrolidine-3-carboxamide] | 100 to 1000 nM
O=C1NCCN1C1CCCN(c2ccnc(-c3cnc4cnc(C(F)(F)F)cn34)n2)C1 (stereo not drawn) [IV-584, 1-(1-(2-(6-(Trifluoromethyl)imidazo[1,2-a]pyrazin-3-yl)pyrimidin-4-yl)piperidin-3-yl)imidazolidin-2-one] | 100 to 1000 nM
CN1CCN(c2ccnc(-c3cnc4cnc(C(F)(F)F)cn34)n2)CC1 [IV-585, 3-(4-(4-Methylpiperazin-1-yl)pyrimidin-2-yl)-6-(trifluoromethyl)imidazo[1,2-a]pyrazine] | 100 to 1000 nM
COCC1CN(c2ccnc(-c3cnc4cnc(C(F)(F)F)cn34)n2)CC(C)O1 (stereo not drawn) [IV-586, 2-(Methoxymethyl)-6-methyl-4-(2-(6-(trifluoromethyl)imidazo[1,2-a]pyrazin-3-yl)pyrimidin-4-yl)morpholine] | 100 to 1000 nM
COCC1CN(c2ccnc(-c3cnc4cnc(C(F)(F)F)cn34)n2)CC(C)O1 (stereo not drawn) [IV-587, 2-(Methoxymethyl)-6-methyl-4-(2-(6-(trifluoromethyl)imidazo[1,2-a]pyrazin-3-yl)pyrimidin-4-yl)morpholine] | 100 to 1000 nM
COCC1CN(c2ccnc(-c3cnc4cnc(C(F)(F)F)cn34)n2)CCO1 (stereo not drawn) [IV-588, 2-(Methoxymethyl)-4-(2-(6-(trifluoromethyl)imidazo[1,2-a]pyrazin-3-yl)pyrimidin-4-yl)morpholine] | 100 to 1000 nM

Other lines, results leading:

Ki | Compound
100 to 1000 nM | FC(F)(F)c1cn2c(-c3nccc(N4CCC(n5ccnc5)C4)n3)cnc2cn1 (stereo not drawn) [IV-564, 3-(4-(3-(1H-Imidazol-1-yl)pyrrolidin-1-yl)pyrimidin-2-yl)-6-(trifluoromethyl)imidazo[1,2-a]pyrazine]
100 to 1000 nM | CN1CC2(CCN(c3ccnc(-c4cnc5cnc(C(F)(F)F)cn45)n3)C2)OCC1=O (stereo not drawn) [IV-565, 9-Methyl-2-(2-(6-(trifluoromethyl)imidazo[1,2-a]pyrazin-3-yl)pyrimidin-4-yl)-6-oxa-2,9-diazaspiro[4.5]decan-8-one]
100 to 1000 nM | NC(=O)CN1CCCN(c2ccnc(-c3cnc4cnc(C(F)(F)F)cn34)n2)CC1 [IV-566, 2-(4-(2-(6-(Trifluoromethyl)imidazo[1,2-a]pyrazin-3-yl)pyrimidin-4-yl)-1,4-diazepan-1-yl)acetamide]
100 to 1000 nM | O=C1NCCN2CCN(c3ccnc(-c4cnc5cnc(C(F)(F)F)cn45)n3)CC12 (stereo not drawn) [IV-568, 8-(2-(6-(Trifluoromethyl)imidazo[1,2-a]pyrazin-3-yl)pyrimidin-4-yl)hexahydro-2H-pyrazino[1,2-a]pyrazin-1(6H)-one]
10 to 100 nM | CSCC1CCN(c2ccnc(-c3cnc4cnc(C(F)(F)F)cn34)n2)C1 (stereo not drawn) [IV-594, 3-(4-(3-((Methylthio)methyl)pyrrolidin-1-yl)pyrimidin-2-yl)-6-(trifluoromethyl)imidazo[1,2-a]pyrazine]

Source: patent publication US10988477B2 (Merck Patent GmbH, priority 2018, dated 2021)
